Laboratory results taken from ChEMBL document CHEMBL6121016, “Design, Synthesis, and Biological Evaluation of 1,3,4-Thiadiazole Derivatives as Novel Potent Peptide Deformylase Inhibitors for Combating Drug-Resistant Gram-Positive and -Negative Bacteria” (J Med Chem, 2025).
Values after ≈ are worked out from the molar mass of the structure shown.

What was measured:
Klebsiella pneumoniae [1] = assay: Antibacterial activity against Klebsiella pneumoniae CICC 21092 after 16 to 18 hrs by broth microdilution method; assay type: functional; conditions: time 16-18 hrs
Klebsiella pneumoniae [2] = assay: Antibacterial activity against Klebsiella pneumoniae CICC 21611 after 16 to 18 hrs by broth microdilution method; assay type: functional; conditions: time 16-18 hrs
Acinetobacter baumannii [3] = assay: Antibacterial activity against Acinetobacter baumannii Bio 24253 after 16 to 18 hrs by broth microdilution method; assay type: functional; conditions: time 16-18 hrs
[4] = Aqueous solubility of compound at 0.9% aqueous NaCl solution incubated for 2 hrs by UV spectrophotometry analysis; assay type: physicochemical
[5] = tested on: Staphylococcus epidermidis; assay: Antibacterial activity against Staphylococcus epidermidis after 16 to 18 hrs by broth microdilution method; assay type: functional; conditions: time 16-18 hrs
[6] = Cytotoxicity against human HEK293T cells assessed as cell viability at 3.125 to 100 uM incubated for 24 hrs by MTT assay; assay type: toxicity, cell-based, HEK-293T
Staphylococcus aureus [7] = assay: Antibacterial activity against methicillin-resistant Staphylococcus aureus ATCC 33591 after 16 to 18 hrs by broth microdilution method; assay type: functional; conditions: time 16-18 hrs
Klebsiella pneumoniae [8] = assay: Antibacterial activity against Klebsiella pneumoniae CICC 20093 after 16 to 18 hrs by broth microdilution method; assay type: functional; conditions: time 16-18 hrs
Escherichia coli [9] = assay: Antibacterial activity against Escherichia coli ATCC 10661 after 16 to 18 hrs by broth microdilution method; assay type: functional; conditions: time 16-18 hrs
Peptide deformylase [10] = target: T1, Peptide deformylase (Staphylococcus aureus, UniProt P68826); assay: Inhibition of Staphylococcus aureus PDF-Ni assessed as enzyme activity incubated for 30 min by fluorescamine method
T1 sequence (P68826 whole entry): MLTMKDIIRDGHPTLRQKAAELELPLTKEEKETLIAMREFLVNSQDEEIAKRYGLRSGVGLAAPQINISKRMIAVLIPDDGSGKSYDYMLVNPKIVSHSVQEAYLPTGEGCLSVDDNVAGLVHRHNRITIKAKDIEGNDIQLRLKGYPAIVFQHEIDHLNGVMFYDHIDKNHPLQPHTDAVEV

Acinetobacter baumannii [11] = assay: Antibacterial activity against Acinetobacter baumannii Bio 53272 after 16 to 18 hrs by broth microdilution method; assay type: functional; conditions: time 16-18 hrs
Staphylococcus aureus [12] = assay: Antibacterial activity against methicillin-resistant Staphylococcus aureus ATCC 43300 after 16 to 18 hrs by broth microdilution method; assay type: functional; conditions: time 16-18 hrs
Acinetobacter baumannii [13] = assay: Antibacterial activity against Acinetobacter baumannii Bio 69680 after 16 to 18 hrs by broth microdilution method; assay type: functional; conditions: time 16-18 hrs
Escherichia coli [14] = assay: Antibacterial activity against Escherichia coli ATCC 25922 after 16 to 18 hrs by broth microdilution method; assay type: functional; conditions: time 16-18 hrs
[15] = Cytotoxicity against human HeLa cells assessed as cell viability at 3.125 to 100 uM incubated for 24 hrs by MTT assay; assay type: toxicity, cell-based
Acinetobacter baumannii [16] = assay: Antibacterial activity against Acinetobacter baumannii Bio 120982 after 16 to 18 hrs by broth microdilution method; assay type: functional; conditions: time 16-18 hrs
Staphylococcus aureus [17] = assay: Antibacterial activity against methicillin-susceptible Staphylococcus aureus ATCC 25923 after 16 to 18 hrs by broth microdilution method; assay type: functional; conditions: time 16-18 hrs
Acinetobacter baumannii [18] = assay: Antibacterial activity against Acinetobacter baumannii Bio 34235 after 16 to 18 hrs by broth microdilution method; assay type: functional; conditions: time 16-18 hrs
Escherichia coli [19] = assay: Antibacterial activity against Escherichia coli ATCC 10668 after 16 to 18 hrs by broth microdilution method; assay type: functional; conditions: time 16-18 hrs
Acinetobacter baumannii [20] = assay: Antibacterial activity against Acinetobacter baumannii Bio 53250 after 16 to 18 hrs by broth microdilution method; assay type: functional; conditions: time 16-18 hrs
Escherichia coli [21] = assay: Antibacterial activity against Escherichia coli ATCC 10663 after 16 to 18 hrs by broth microdilution method; assay type: functional; conditions: time 16-18 hrs
Staphylococcus aureus [22] = assay: Antibacterial activity against methicillin-susceptible Staphylococcus aureus ATCC 13709 after 16 to 18 hrs by broth microdilution method; assay type: functional; conditions: time 16-18 hrs
Staphylococcus aureus [23] = assay: Antibacterial activity against methicillin-susceptible Staphylococcus aureus ATCC 29213 after 16 to 18 hrs by broth microdilution method; assay type: functional; conditions: time 16-18 hrs
Acinetobacter baumannii [24] = assay: Antibacterial activity against drug-resistant Acinetobacter baumannii Bio 53272 after 16 to 18 hrs by broth microdilution method; assay type: functional; conditions: time 16-18 hrs
Peptide deformylase [25] = target: T2, Peptide deformylase (Escherichia coli, UniProt Q9JN24); assay: Inhibition of Escherichia coli PDF-Ni assessed as enzyme activity incubated for 30 min by fluorescamine method
T2 sequence (Q9JN24 whole entry): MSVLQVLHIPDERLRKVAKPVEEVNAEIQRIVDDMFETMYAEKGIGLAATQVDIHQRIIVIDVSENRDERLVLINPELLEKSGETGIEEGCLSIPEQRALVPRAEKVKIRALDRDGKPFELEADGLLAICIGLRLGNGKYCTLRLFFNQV

Staphylococcus aureus [26] = assay: Antibacterial activity against methicillin-resistant Staphylococcus aureus Bio-090770 after 16 to 18 hrs by broth microdilution method; assay type: functional; conditions: time 16-18 hrs
[27] = Methemoglobin toxicity in human blood at 500 uM incubated for 6 hrs by MetHb content assay; assay type: tissue-based
[28] = Acute toxicity in KM mouse infected with drug-resistant Acinetobacter baumannii assessed as pathological changes in lungs at 40 mg/kg by HE staining based analysis; assay type: organism-based; conditions: in vivo
[29] = Acute toxicity in KM mouse infected with drug-resistant Acinetobacter baumannii assessed as pathological changes in liver at 40 mg/kg by HE staining based analysis; assay type: organism-based; conditions: in vivo
[30] = Acute toxicity in KM mouse infected with drug-resistant Acinetobacter baumannii assessed as survival rate at 40 mg/kg; assay type: organism-based; conditions: in vivo
[31] = Acute toxicity in KM mouse infected with drug-resistant Acinetobacter baumannii assessed as pathological changes in kidney at 40 mg/kg by HE staining based analysis; assay type: organism-based; conditions: in vivo

Row | Structure (SMILES) | MIC (Klebsiella pneumoniae [2]) | MIC [5] | IC50 at 24 h [6] | MIC (Staphylococcus aureus [7]) | MIC (Staphylococcus aureus [12]) | MIC (Escherichia coli [14]) | IC50 at 24 h [15] | MIC (Staphylococcus aureus [17]) | MIC (Acinetobacter baumannii [18]) | MIC (Staphylococcus aureus [22]) | MIC (Staphylococcus aureus [23]) | MIC (Acinetobacter baumannii [24]) | MIC (Staphylococcus aureus [26]) | Activity [27] | other results
1 | CCCC[C@H](CN(O)C=O)C(=O)N1CCC[C@H]1c1nnc(-c2ccc(-c3ccccn3)cc2)s1 | 32 µg/mL (≈ 66.7 µM) | 1 µg/mL (≈ 2.09 µM) | > 100 µM | 0.125 µg/mL (≈ 0.261 µM) | 0.25 µg/mL (≈ 0.521 µM) | 64 µg/mL (≈ 133 µM) | 89 µM | 0.25 µg/mL (≈ 0.521 µM) | 32 µg/mL (≈ 66.7 µM) | 0.5 µg/mL (≈ 1.04 µM) | 0.5 µg/mL (≈ 1.04 µM) | 32 µg/mL (≈ 66.7 µM) | 0.5 µg/mL (≈ 1.04 µM) | – | MIC (Klebsiella pneumoniae [1]): 32 µg/mL (≈ 66.7 µM); MIC (Acinetobacter baumannii [3]): 32 µg/mL (≈ 66.7 µM); solubility at 2 h [4]: 370 µg/mL (≈ 771 µM); MIC (Klebsiella pneumoniae [8]): 16 µg/mL (≈ 33.4 µM); MIC (Escherichia coli [9]): 16 µg/mL (≈ 33.4 µM); IC50 (Peptide deformylase [10]): 0.0043 µM; MIC (Acinetobacter baumannii [11]): 32 µg/mL (≈ 66.7 µM); MIC (Acinetobacter baumannii [13]): 32 µg/mL (≈ 66.7 µM); MIC (Acinetobacter baumannii [16]): 32 µg/mL (≈ 66.7 µM); MIC (Escherichia coli [19]): 16 µg/mL (≈ 33.4 µM); MIC (Acinetobacter baumannii [20]): 32 µg/mL (≈ 66.7 µM); MIC (Escherichia coli [21]): 16 µg/mL (≈ 33.4 µM); IC50 (Peptide deformylase [25]): 0.124 µM
2 | Nc1ccc(S(=O)(=O)c2ccc(N)cc2)cc1 [DAPSONE] | – | – | – | – | – | – | – | – | – | – | – | – | – | Toxic | –
3 | O=C(O)c1cn(C2CC2)c2cc(N3CCNCC3)c(F)cc2c1=O [CIPROFLOXACIN] | 0.03 µg/mL (≈ 0.0905 µM) | 0.06 µg/mL (≈ 0.181 µM) | – | 0.25 µg/mL (≈ 0.754 µM) | 64 µg/mL (≈ 193 µM) | – | – | 4 µg/mL (≈ 12.1 µM) | 0.5 µg/mL (≈ 1.51 µM) | 8 µg/mL (≈ 24.1 µM) | 8 µg/mL (≈ 24.1 µM) | 32 µg/mL (≈ 96.6 µM) | 0.5 µg/mL (≈ 1.51 µM) | – | Activity [28]: Toxic; Activity [29]: Toxic; Activity [30]: Toxic; Activity [31]: Toxic
4 | CCCC[C@H](CN(O)C=O)C(=O)N1CCC[C@H]1c1nnc(-c2ccc(Cl)s2)s1 | 32 µg/mL (≈ 72.2 µM) | 0.5 µg/mL (≈ 1.13 µM) | > 100 µM | 0.25 µg/mL (≈ 0.564 µM) | 0.25 µg/mL (≈ 0.564 µM) | 32 µg/mL (≈ 72.2 µM) | > 100 µM | 1 µg/mL (≈ 2.26 µM) | 32 µg/mL (≈ 72.2 µM) | 1 µg/mL (≈ 2.26 µM) | 1 µg/mL (≈ 2.26 µM) | 16 µg/mL (≈ 36.1 µM) | 1 µg/mL (≈ 2.26 µM) | Toxic | –
